Data published in patent publication US20210094922A1, “Dyes for Analysis of Soluble Protein Aggregates or Misfolded Protein Oligomers” (The Penn State Research Foundation, priority 2018, published 2021).

Legend:
Type in all cases: biochemical
SOD1-A4V-Halo = SOD1-A4V-Halo (Homo sapiens, UniProt P00441, A5V); assay: In vitro heat-induced aggregation of SOD1-A4V-Halo conjugates
Source text: (B-C) Excitation and emission spectra of 4 (with misfolded oligomers of SOD1-A4V-Halo) and 5 (with insoluble aggregates of SOD1-A4V-Halo).
The inventors installed Halo-tag reactive warhead to 2, resulting in 5.

SOD1(V31A)-Halo [1] = target: SOD1(V31A)-Halo (Rhodococcus rhodochrous, UniProt P0A3G2, A155T/A167V/A172T/A224E/C128F/C176G/D78G/E160K/E257K/H272N/K175M/K195N/L47V/L88M/N227D/P291S/S58T/T264A/Y273L/Y87F); assay: In vitro heat-induced aggregation of purified SOD1(V31A)-Halo-4 conjugate; design: made in house; host or cells: E. coli BL21 DE3* (pET29b; pBAD σ32-I54N co-expressed)
Procedure: (§1) (a) Purified SOD1(V31A)-Halo and Halo-Tag proteins (42 μM), both of which were conjugated with 4 (21 μM), were incubated at varying temperatures (25, 37, 38.9, 41.8, 45.6, 50.7, 54.5, 57.2, and 59° C.). As control samples, 4 (21 μM) was prepared in buffer, 1,4-dioxane, glycerol, BSA (2 mg/mL). Fluorescence intensity was recorded at Ex=530 nm/Em=600 nm. All readings were normalized to intensity of the Halo-Tag-4 conjugate at 25° C. Fluorescence of protein samples was also visualized via UV transilluminator. In addition, protein samples were centrifuged at 21,000 g for 30 min at 4° C. to analyze their insoluble fraction using fluorescence of 4 as signal on SDS-PAGE gel. […] This fluorescence was not originated from aggregation of Halo-Tag domain, as evidenced by the low fluorescence of the Halo-4 conjugate and lack of significant insoluble fraction at these temperatures. Error bars: standard error (n=3). (b) Purified SOD1(V31A)-Halo and Halo-Tag proteins ([…]) were conjugated with 4 (21 μM) and incubated at 54.5° C. Fluorescence was recorded using Agilent Carey Eclipse fluorescence spectrophotometer with temperature control. Buffer condition: 50 mM Tris-HCl, pH 7.5, 100 mM NaCl, 83 mM EDTA. Parameters for fluorescence measurement: 4 (Ea=530 nm/Em=600 nm).
(§2) (a) Purified SOD1(V31A)-Halo (42 μM) was conjugated with 4 (21 μM) and incubated at 54.5° C. Fluorescence was recorded using Agilent Carey Eclipse fluorescence spectrophotometer with temperature control. Turbidity was recorded using Agilent 300 UV-Vis spectrophotometer. Buffer condition: 50 mM Tris-HCl, pH 7.5, 100 mM NaCl, 83 mM EDTA. (b) Kinetics of fluorescence increases from the SOD1(V31A)-Halo-4 conjugate (red curve) was compared to the kinetics of protein misfolding (black curve) as measured by Tryptophan fluorescence change. Fluorescence was recorded using Agilent Carey Eclipse fluorescence spectrophotometer with temperature control. Experiments were carried out at 54.5° C. Parameters for fluorescence measurement: 4 (Ex=530 nm/Em=600 nm) and Trp (Ex=290 nm/Em=330 and 345 nm). Error bars: standard error (n=3).

SOD1(V31A)-Halo [2] = target: SOD1(V31A)-Halo (UniProt P00441+P0A3G2, A155T/A167V/A172T/A224E/C128F/C176G/D78G/E160K/E257K/H272N/K175M/K195N/L47V/L88M/N227D/S58T/T264A/V32A/Y273L/Y87F); assay: as above; design: made in house; host or cells: E. coli BL21 DE3* (pET29b; pBAD σ32-I54N co-expressed)
Procedure: as §1, §2

[3] = 4 with misfolded oligomers, 5 with insoluble aggregates of SOD1-A4V-Halo

SOD1(V31A)-Halo (UniProt P00441+P0A3G2, A155T/A167V/A172T/A224E/C128F/C176G/D78G/E160K/E257K/H272N/K175M/K195N/L47V/L88M/N227D/S58T/T264A/V32A/Y273L/Y87F), sequence (P00441+P0A3G2 fused with the stated changes): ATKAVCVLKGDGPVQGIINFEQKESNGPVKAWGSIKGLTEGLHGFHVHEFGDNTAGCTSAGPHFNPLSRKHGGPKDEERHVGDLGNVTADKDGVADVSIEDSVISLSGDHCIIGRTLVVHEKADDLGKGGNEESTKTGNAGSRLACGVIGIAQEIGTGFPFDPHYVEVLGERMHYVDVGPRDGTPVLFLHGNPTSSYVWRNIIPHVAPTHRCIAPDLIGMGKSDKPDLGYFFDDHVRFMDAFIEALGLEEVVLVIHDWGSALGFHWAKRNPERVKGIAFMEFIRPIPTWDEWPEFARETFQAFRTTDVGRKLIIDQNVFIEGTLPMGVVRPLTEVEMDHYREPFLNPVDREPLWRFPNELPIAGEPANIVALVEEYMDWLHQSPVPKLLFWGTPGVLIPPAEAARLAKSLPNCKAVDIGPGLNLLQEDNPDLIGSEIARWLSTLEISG
SOD1-A4V-Halo, sequence (P00441 with tags, fused parts or gaps A5V): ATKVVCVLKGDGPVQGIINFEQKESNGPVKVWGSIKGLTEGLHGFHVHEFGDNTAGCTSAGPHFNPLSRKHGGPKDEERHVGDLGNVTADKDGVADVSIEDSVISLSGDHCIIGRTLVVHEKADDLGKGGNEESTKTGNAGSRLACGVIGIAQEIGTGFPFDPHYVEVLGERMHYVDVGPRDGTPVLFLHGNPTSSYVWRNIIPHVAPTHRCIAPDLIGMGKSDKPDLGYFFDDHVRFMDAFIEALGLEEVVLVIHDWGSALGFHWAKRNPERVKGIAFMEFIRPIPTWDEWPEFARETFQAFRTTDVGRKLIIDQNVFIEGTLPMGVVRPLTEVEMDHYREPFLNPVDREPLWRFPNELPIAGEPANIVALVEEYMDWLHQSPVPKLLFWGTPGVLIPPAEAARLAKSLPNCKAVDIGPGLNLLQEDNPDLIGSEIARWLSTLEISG
SOD1(V31A)-Halo (Rhodococcus rhodochrous, UniProt P0A3G2, A155T/A167V/A172T/A224E/C128F/C176G/D78G/E160K/E257K/H272N/K175M/K195N/L47V/L88M/N227D/P291S/S58T/T264A/Y273L/Y87F), sequence (P0A3G2 other isoform, or with tags, fused parts or gaps with the stated changes): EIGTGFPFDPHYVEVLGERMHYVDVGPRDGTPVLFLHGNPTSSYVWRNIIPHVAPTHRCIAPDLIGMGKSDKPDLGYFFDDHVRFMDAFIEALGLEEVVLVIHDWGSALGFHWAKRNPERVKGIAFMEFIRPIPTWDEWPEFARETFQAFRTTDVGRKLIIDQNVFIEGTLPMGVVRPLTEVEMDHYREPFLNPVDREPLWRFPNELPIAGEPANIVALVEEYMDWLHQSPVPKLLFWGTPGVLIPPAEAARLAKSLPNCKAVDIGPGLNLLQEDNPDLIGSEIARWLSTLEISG

CN(C)c1ccc(/C=C2N=C(/C=C/c3ccc(N(CCO)CCO)cc3)N(CC(=O)N[C@H]3CC[C@H](C(=O)NCCOCCOCCCCCCCl)CC3)C\2=O)cc1 [Compound 4, (1r,4r)-4-(2-((Z)-2-((E)-4-(bis(2-hydroxyethyl)amino)styryl)-4-(4-(dimethylamino)benzylidene)-5-oxo-4,5-dihydro-1H-imidazol-1-yl)acetamido)-N-(2-(2-((6-chlorohexyl)oxy)ethoxy)ethyl)cyclohexanecarboxamide]
Em (SOD1-A4V-Halo; [3]): 600 nm | Ex (SOD1-A4V-Halo; [3]): 530 nm | kinetics of fluorescence increase versus turbidity (SOD1-A4V-Halo; SOD1-A4V-Halo conjugate): faster than that of turbidity | fluorescence of the Halo-4 conjugate control under heat (SOD1(V31A)-Halo [1]): remained non-fluorescent under all heat conditions | fluorescence of the SOD1(V31A)-Halo-4 conjugate under heat (SOD1(V31A)-Halo [2]): increased in the absence of insoluble protein aggregates | kinetics of fluorescence increase versus turbidity (SOD1(V31A)-Halo [2]; 54.5° C.): much faster than the kinetics of turbidity | kinetics of fluorescence versus protein misfolding (SOD1(V31A)-Halo [2]; 54.5° C.): coincided with the kinetics of protein misfolding
